Experiments:
Experiment in all cases: relative viability (nuclei count vs DMSO), 5 days (fraction); higher = more cells survive
CAL-12T = tested on: CAL-12T
Method in brief: (§1)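 Nuclei were stained with Hoechst during a one-step fixation (final 0.05% Triton X-100, 1% formaldehyde, 1 ug/ml Hoechst) carried out 5 days after dosing, then counted on 4× images. The cells, lung cancer lines in 1536-well plates, had been dosed by pin tool the day after seeding with one drug alone or a fixed anchor-drug dose plus five library-drug doses (not always all listed) in √10 steps. Relative viability is the nuclei count in treated wells divided by that in vehicle wells, and each value is the median of duplicate plates.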

LCLC-103H = tested on: LCLC-103H
Method in brief: as §1

HCC-366 = tested on: HCC-366
Method in brief: as §1

SW 1573 = tested on: SW 1573
Method in brief: as §1

HOP-62 = tested on: HOP-62
Method in brief: as §1

NCI-H1355 = tested on: NCI-H1355
Method in brief: as §1

COR-L 105 = tested on: COR-L 105
Method in brief: as §1

HCC-827 = tested on: HCC-827
Method in brief: as §1

NCI-H727 = tested on: NCI-H727
Method in brief: as §1

NCI-H1755 = tested on: NCI-H1755
Method in brief: as §1

A-427 = tested on: A-427
Method in brief: as §1

NCI-H2009 = tested on: NCI-H2009
Method in brief: as §1

## Clc1ccc(Nc2nnc(Cc3ccncc3)c3ccccc23)cc1 [Vatalanib] + Cc1cc(Nc2cc(N3CCN(C)CC3)nc(Sc3ccc(NC(=O)C4CC4)cc3)n2)n[nH]1 [Tozasertib] (partner 0.1 µM)
CAL-12T; first compound 0.04 µM
  relative viability: 0.307
CAL-12T; first compound 0.1265 µM
  relative viability: 0.297
CAL-12T; first compound 0.4 µM
  relative viability: 0.304
CAL-12T; first compound 1.265 µM
  relative viability: 0.266
CAL-12T; first compound 4 µM
  relative viability: 0.277
LCLC-103H; first compound 0.04 µM
  relative viability: 0.482
LCLC-103H; first compound 0.1265 µM
  relative viability: 0.518
LCLC-103H; first compound 0.4 µM
  relative viability: 0.532
LCLC-103H; first compound 1.265 µM
  relative viability: 0.503
LCLC-103H; first compound 4 µM
  relative viability: 0.502
HCC-366; first compound 0.04 µM
  relative viability: 0.119
HCC-366; first compound 0.1265 µM
  relative viability: 0.0909
HCC-366; first compound 0.4 µM
  relative viability: 0.161
HCC-366; first compound 1.265 µM
  relative viability: 0.103
HCC-366; first compound 4 µM
  relative viability: 0.095
SW 1573; first compound 0.04 µM
  relative viability: 0.145
SW 1573; first compound 0.1265 µM
  relative viability: 0.165
SW 1573; first compound 0.4 µM
  relative viability: 0.215
SW 1573; first compound 1.265 µM
  relative viability: 0.257
SW 1573; first compound 4 µM
  relative viability: 0.153
HOP-62; first compound 0.04 µM
  relative viability: 0.401
HOP-62; first compound 0.1265 µM
  relative viability: 0.335
HOP-62; first compound 0.4 µM
  relative viability: 0.396
HOP-62; first compound 1.265 µM
  relative viability: 0.336
HOP-62; first compound 4 µM
  relative viability: 0.405
NCI-H1355; first compound 0.04 µM
  relative viability: 0.585
NCI-H1355; first compound 0.1265 µM
  relative viability: 0.58
NCI-H1355; first compound 0.4 µM
  relative viability: 0.664
NCI-H1355; first compound 1.265 µM
  relative viability: 0.462
NCI-H1355; first compound 4 µM
  relative viability: 0.521
COR-L 105; first compound 0.04 µM
  relative viability: 0.339
COR-L 105; first compound 0.1265 µM
  relative viability: 0.344
COR-L 105; first compound 0.4 µM
  relative viability: 0.451
COR-L 105; first compound 1.265 µM
  relative viability: 0.35
COR-L 105; first compound 4 µM
  relative viability: 0.362
HCC-827; first compound 0.04 µM
  relative viability: 0.378
HCC-827; first compound 0.1265 µM
  relative viability: 0.423
HCC-827; first compound 0.4 µM
  relative viability: 0.463
HCC-827; first compound 1.265 µM
  relative viability: 0.429
HCC-827; first compound 4 µM
  relative viability: 0.367
NCI-H727; first compound 0.04 µM
  relative viability: 0.6
NCI-H727; first compound 0.1265 µM
  relative viability: 0.658
NCI-H727; first compound 0.4 µM
  relative viability: 0.472
NCI-H727; first compound 1.265 µM
  relative viability: 0.624
NCI-H727; first compound 4 µM
  relative viability: 0.533
NCI-H1755; first compound 0.04 µM
  relative viability: 0.587
NCI-H1755; first compound 0.1265 µM
  relative viability: 0.612
NCI-H1755; first compound 0.4 µM
  relative viability: 0.701
NCI-H1755; first compound 1.265 µM
  relative viability: 0.58
NCI-H1755; first compound 4 µM
  relative viability: 0.628
A-427; first compound 0.04 µM
  relative viability: 0.224
A-427; first compound 0.1265 µM
  relative viability: 0.21
A-427; first compound 0.4 µM
  relative viability: 0.232
A-427; first compound 1.265 µM
  relative viability: 0.206
A-427; first compound 4 µM
  relative viability: 0.2
NCI-H2009; first compound 0.04 µM
  relative viability: 0.752
NCI-H2009; first compound 0.1265 µM
  relative viability: 0.678

— the supplement of paper PMC10307832
